Earlier results on one compound are cited in patent publication US6726673B1, “Methods and apparatus for improved administration of testosterone pharmaceuticals” (Zars, Inc., priority 1999, dated 2004).

The conditions of the data set: following intramuscular injection, absorbed gradually from the lipid tissue phase at the injection site.

In the case of `CCCCCCC(=O)O[C@H]1CC[C@H]2[C@@H]3CCC4=CC(=O)CC[C@]4(C)[C@H]3CC[C@]12C` [testosterone enanthate], the duration of action is 2-4 weeks.
